Where a SMILES comes first, the peptide text is derived from it.
Experiments:
[1] = target: T1, mouse C5a-desArg (Mus musculus, UniProt P06684); assay: SPR binding affinity assay, immobilized mouse C5a-desArg
T1 construct: mouse C5a-desArg (MCE, Shanghai, China); purchased MCE
T1 sequence (P06684 679-754 limits assumed): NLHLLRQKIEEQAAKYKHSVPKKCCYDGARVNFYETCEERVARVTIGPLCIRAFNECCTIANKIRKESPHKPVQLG
Method: (§1) Surface plasmon resonance (SPR) analysis was conducted using Biacore 2000 system (GE Healthcare, Germany) at 37°C in running buffer (20 mM Tris-HCl, pH 7.4, 150 mM NaCl, 5 mM KCl, 1 mM MgCl₂, 1 mM CaCl₂). The CM5 sensor chips (GE Healthcare) were activated with NHS/EDC, followed by immobilization of mouse C5a (ACROBiosystems, Beijing, China), human C5a (ACROBiosystems, Beijing, China), mouse C5 (ACROBiosystems, Beijing, China) or mouse C5a-desArg (MCE, Shanghai, China). The peptide-protein interactions were characterized using a concentration-gradient approach (low to high) with a continuous flow rate of 30 μL/min (150 s injection duration). Between analyte concentrations, the sensor surface was regenerated with 10 mM glycine-HCl (pH 2.0; 5 min treatment). Binding and dissociation constants were obtained by globally fitting the data to a 1:1 Langmuir binding model using a Biacore Insight evaluation software (Cytiva, USA).

[2] = target: T2, mouse C5a (Mus musculus, UniProt P06684); assay: Plasma C5a/C5 ratio by ELISA after Cp1; format: in vivo; conditions: 100 μg/20 g, normal mice or CLP model mice
T2 sequence (P06684 679-755 limits assumed): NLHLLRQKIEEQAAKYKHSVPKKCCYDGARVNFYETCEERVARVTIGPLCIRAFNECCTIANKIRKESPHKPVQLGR
Text: We evaluated the in vivo neutralization of Cp1 against C5a by measuring the plasma C5a/C5 ratio in normal mice or CLP model mice.

[3] = test system: CLP-induced septic mice; assay: Inflammatory factors and chemokines in PLF, Luminex, CLP mice; format: in vivo, mouse
Method: Twenty-four hours later, whole blood and PLF were collected under anesthesia. The plasma and PLF supernatants were further isolated via centrifugation (3000 × g, 10 min, 4 °C) and subjected to inflammatory factor and chemokine profiling via the Luminex® multiplex […] Biotechnologies, Shanghai, China). The percent inhibition was calculated relative to that of the sham group (set as 0%).

[4] = test system: CLP-induced septic mice; assay: Endothelial injury biomarkers and capillary leakage in CLP mice; format: in vivo, mouse; conditions: 24 h post-CLP surgery
Method: To evaluate microvascular leakage in the murine abdominal cavity, the mice received 100 μg of Cp1 via intravenous administration one hour after CLP surgery. Subsequently, 200 μL of 0.25% (w/v) Evans blue dye was injected intravenously for permeability quantification. Twenty-four hours later, the plasma and peritoneal lavage fluid (PLF) of the mice were collected and subjected to spectrophotometric measurement at 620 nm. To exclude hemoglobin interference, the serum absorbance values were corrected via the following formula: corrected A620 = A620 − (A405 × 0.014).[40] Vascular permeability was quantified by the A620 ratio of PLF to serum. To assess capillary leakage in pulmonary tissues, human plasma albumin (HSA) (1 mg/75 μL) was injected intravenously after CLP surgery and Cp1 administration. Twenty-four hours later, the HSA in the bronchoalveolar lavage fluid (BALF) and plasma samples was quantified via a HAS ELISA Kit (Cusabio, Wuhan), and the lung permeability index was calculated as the ratio of the HAS in the BALF to that in the plasma.
The cecal ligation and puncture (CLP) model was established in male C57BL/6 mice (9-10 weeks old). Briefly, a midline laparotomy was performed to exteriorize the cecum under general anesthesia. The cecum was ligated at the distal three-quarters using sutures. Subsequently, a single through-and-through puncture was made in the ligated segment using a 22-gaμge needle, followed by small volume of fecal content was gentle extrusion. The cecum was then repositioned within abdominal cavity, and the laparotomy incision was closed in layers. All animals were administered 1 mL of sterile saline for postoperative fluid resuscitation. Sham-operated controls underwent identical surgical procedures without cecal ligation or puncture. In this work, mice received administration via intravenous injection 1 hour after CLP surgery. The animal mortality was determined by the presence of confirmed death. […] Blood samples were collected 24 hours after CLP-modeling for hematological analysis (Mindray BC-60R Vet) and biochemical analysis (Mindray BS-240 Vet, China), endothelial injury analysis (Njjcbio, Nanjing) and coagulation analysis (Legene, Beijing). Subsequently, mice were sacrificed to collect the main organs for morphological and pathological analysis.

[5] = test system: CLP-induced septic mice; assay: Bacterial burden in blood (CFU) of CLP mice; format: in vivo, mouse
Method: Whole blood samples were aseptically dropped onto nutrient agar plates. Glass beads were added, and the samples were rocked horizontally to ensure the uniform distribution of blood samples. The inoculated plates were incubated at 37 °C for 24 h, after which colony-forming units (CFUs) were counted. The colonies on the culture plates were counted via ProtoCOL 3 HD (Synbiosis, UK).

[6] = test system: human peripheral blood mononuclear cells (PBMCs); assay: RNA sequencing of C5a-stimulated PBMCs; format: cell-based; conditions: |log2FoldChange| ≥ 1, P < 0.05
Method: Human peripheral mononuclear cells were stimulated with 100 ng/mL of human C5a protein (MCE, China) or a complex of human C5a with Cp1 for 1 h. After RNA extraction, purification and library construction, the Next-Generation Sequencing (NGS) technology was used to perform paire-end (PE) sequencing based on Illumina sequencing platform in Bioprofile Biotechnology Co., Ltd (Shanghai, China). The expression of each gene was calculated and further subjected to differential expression analysis, enrichment analysis and cluster analysis.

[7] = target: T2, mouse C5a; assay: SPR binding affinity assay, immobilized mouse C5a; set-up: immobilization of mouse C5a (ACROBiosystems, Beijing, China); purchased ACROBiosystems
Method: as §1

[8] = 100 μg/20 g, 24 h after CLP, relative to Sham set as 0%

CSCC[C@@H]1NC(=O)[C@@H]2CCCN2C(=O)[C@H](CCSC)NC(=O)[C@H](CO)NC(=O)[C@H](Cc2c[nH]cn2)NC(=O)CNC(=O)[C@H](CO)NC(=O)[C@H](Cc2ccccc2)NC(=O)[C@H](CCCNC(=N)N)NC(=O)[C@H](CCC(=O)O)NC(=O)[C@H](Cc2ccccc2)NC(=O)[C@H](C(C)C)NC1=O [Cp1] (cyclo(HSMPMVFERFSG))
kon ([1]; pH 7.4, read-out: Ka vs mC5a-desArg (SPR)): 2490 M⁻¹ s⁻¹
koff ([1]; read-out: Kd (dissociation rate) vs mC5a-desArg (SPR)): 0.0089 s⁻¹
plasma C5a/C5 ratio [2]: decreased ratio of C5a/C5
decrease of CCL2 in PLF [3, 8]: 96%
decrease of CCL3 in PLF [3, 8]: 87%
decrease of CCL5 in PLF [3, 8]: 89%
decrease of CCL7 in PLF [3, 8]: 69%
decrease of CCL12 in PLF [3, 8]: 90%
decrease of CXCL1 in PLF [3, 8]: 75%
decrease of CXCL5 in PLF [3, 8]: 94%
decrease of IL-1β in PLF [3, 8]: 62%
decrease of IL-6 in PLF [3, 8]: 73%
decrease of TNF-α in PLF [3, 8]: 77%
expression of inflammatory factors and chemokines in PLF, high dose ([3]; 300 μg of Cp1): effectively suppressed
attenuation of IL-6 in PLF ([3]; CLP-induced septic mice, first of four 'corresponding' values): 3.7 fold
attenuation of CXCL1 in PLF ([3]; CLP-induced septic mice, fourth of four 'corresponding' values): 4.3 fold
attenuation of CCL2 in PLF ([3]; CLP-induced septic mice, third of four 'corresponding' values): 25 fold
decrease of circulating E-selectin vs CLP group ([4]; 100 μg/20 g): 71%
decrease of circulating PAI-1 vs CLP group ([4]; 100 μg/20 g): 93%
decrease of circulating VCAM-1 vs CLP group ([4]; 100 μg/20 g): 100%
decrease of Evans blue leakage (PLF/Serum) ([4]; vs untreated CLP group): 54%
decrease of HAS leakage (BALF/Serum) ([4]; vs untreated CLP group): 83%
reduction in lung wet-to-dry weight ratio (W/D ratio) ([4]; vs untreated CLP group): 85%
reduction of bacterial burden (CFUs/mL in blood) vs CLP ([5]; 100 μg Cp1, 24 h post-CLP): 93%
reduction of bacterial burden (CFUs/mL in blood) vs CLP ([5]; 300 μg Cp1, 24 h post-CLP): 86%
DEGs downregulated after Cp1 preincubation [6]: 2235
kon ([7]; pH 7.4, read-out: Ka vs mC5a (SPR)): 63800 M⁻¹ s⁻¹
koff ([7]; read-out: Kd (dissociation rate) vs mC5a (SPR)): 0.359 s⁻¹

Reference: PMC12586598, “A novel long-acting C5a-blocking cyclic peptide prevents sepsis-induced organ dysfunction via effective blockade of the inflammatory cascade” (Signal Transduction and Targeted Therapy, 2025)
